# Data from patent US20250281496A1, “METHODS OF TREATING NEUROPATHY USING FORETINIB AND COMPOSITIONS THEREOF” (INDIANA UNIVERSITY RESEARCH AND TECHNOLOGY CORPORATION, priority 2022, published 2025).
# How the values were obtained:
# [1] = tested on: sympathetic and sensory neurons; conditions: in vitro, previously shown (ref 17); cited from earlier work
# [2] = tested on: sympathetic and sensory neurons; assay: Neuroprotection in primary culture of sympathetic and sensory neurons (trophic deprivation); assay type: cell-based
# [3] = Potential side effects and body weight under daily oral Foretinib in STZ-diabetic mice; assay type: in vivo
# Procedure: The primary objective of these experiments was to determine the effect of oral Foretinib on cutaneous innervation density in an experimental diabetic neuropathy. The numbers of animals needed for these experiments were determined by power analysis based on preliminary experiments assessing the cutaneous innervation density in diabetic and non-diabetic mice. A 50% increased nerve fiber density compared to the diabetic control was considered scientifically relevant, requiring a minimum of n=5 animals per group to achieve a power of 0.9 when assuming a standard deviation (SD) of 0.01 for all groups (normally distributed, two-sided). Animals were randomly allocated to experimental groups prior to induction of diabetes and the investigators were blinded during outcome assessments. Two experimental animals allocated to the Foretinib treated group were excluded from the experiment after not responding to the STZ injections. No outliers were excluded from the analysis. After five weeks, the experiment was terminated because 4 of 8 animals reached a predefined humane endpoint of greater than 15% weight loss compared to their pre-diabetic weight. The scheduled experimental endpoint was 12 weeks post-STZ injection. […]
# [4] = tested on: human iPSC-derived cultured MNs; assay: Thapsigargin- and Tunicamycin-induced death of human iPSC-derived motor neurons; assay type: cell-based; conditions: 1 μM Thapsigargin or 1 μM Tunicamycin, 0.5 uM Foretinib, 48 hrs
# Procedure: A) Rat sympathetic neurons grown in compartmented cultures for one week in the presence of NGF were switched into the indicated conditions for 48 h and immunostained for βIII-tubulin (white). Schematics on the left show the configurations used. In the top panels, NGF was maintained in all compartments. In the center and bottom panels, NGF was withdrawn from all compartments. At the bottom panel and 500 nM foretinib (Foret) added to one of the sides and the center compartment. Fluorescence images show βIII-tubulin-positive axons in the sides compartment. At the right, enlarged images of the axons per condition. While the NGF deprived neurons degenerated (axonal beading and degradation in the central panel), Foretinib supplemented (lower panel) axons kept growing Red arrow at the top of the image indicates the distance of the axonal extension during 48 h since NGF withdrawal. Size bar: […].B) MNs were differentiated from healthy human iPS (Line ID 1016A)^62 as described^63. 3 day old MNs were treated with either 1 μM of Thapsigargin (Thaps) or 1 μM Tunicamycin (Tuni) and/or with either 0.5 uM of Foretinib. […] C) Quantitative representation of the results as in B. Error bars represent standard error; *p<0.05; ***p<0.005; t-test. […] E) Quantitative representation of changes in mouse body weight in dependence of the indicated IP daily doses of Foretinib.
# [5] = tested on: experimental diabetic neuropathy; assay: Intraepidermal nerve fiber density (IENFD) in plantar skin of STZ-diabetic mice; assay type: in vivo
# Procedure: The primary objective of these experiments was to determine the effect of oral Foretinib on cutaneous innervation density in an experimental diabetic neuropathy. The numbers of animals needed for these experiments were determined by power analysis based on preliminary experiments assessing the cutaneous innervation density in diabetic and non-diabetic mice. A 50% increased nerve fiber density compared to the diabetic control was considered scientifically relevant, requiring a minimum of n=5 animals per group to achieve a power of 0.9 when assuming a standard deviation (SD) of 0.01 for all groups (normally distributed, two-sided). Animals were randomly allocated to experimental groups prior to induction of diabetes and the investigators were blinded during outcome assessments. Two experimental animals allocated to the Foretinib treated group were excluded from the experiment after not responding to the STZ injections. No outliers were excluded from the analysis. After five weeks, the experiment was terminated because 4 of 8 animals reached a predefined humane endpoint of greater than 15% weight loss compared to their pre-diabetic weight. The scheduled experimental endpoint was 12 weeks post-STZ injection.
# A total of 25 adult (24-28g), transgenic mice with a genetic black six background were included. […]
# [6] = tested on: wt and Sod1^G93A cultured mouse MN; assay: Survival of trophic factor-deprived cultured mouse motor neurons; assay type: cell-based
# [7] = tested on: TDP-43 mutant Zebra fish larvae; assay: TDP-43 mutant Zebra fish larvae ALS model; assay type: in vivo; set-up: motor neuron axon length and NMJ formation: dose or concentration left out as unconfirmed
smiles,measurement,setting,value
"COc1cc2c(Oc3ccc(NC(=O)C4(C(=O)Nc5ccc(F)cc5)CC4)cc3F)ccnc2cc1OCCCN1CCOCC1 [Foretinib, N1-[3-Fluoro-4-({6-methoxy-7-[3-(morpholin-4-yl)propoxy]quinolin-4-yl}oxy)phenyl]-N′1-(4-fluorophenyl)cyclopropane-1,1-dicarboxamide]",axonal die-back under trophic deprivation,[1],prevents axonal die-back mechanisms
same,effective neuroprotective concentration,[2],> 100 nM
same,relative body weight change versus pre-diabetic weight,"[3]; 30 mg/kg oral daily, 5 weeks post-injection, group mean",< −15%
same,signs of increased distress,"[3]; 30 mg/kg orally via daily gavage, after four weeks of daily treatment","lethargic behavior, ruffled fur, and weight loss"
same,rescue of ER-stressor induced motor neuron death,[4],rescued Thapsigargin-and Tunicamycin-induced death
same,"intraepidermal nerve fiber density (IENFD), plantar skin","[5]; 30 mg/kg oral daily, 5 weeks post-diabetes induction, versus other diabetic groups",similarly reduced IENFD
same,reduction in epidermal nerve fiber density compared to healthy mice,"[5]; all diabetic groups incl. Foretinib 30 mg/kg/day oral, five weeks after diabetes induction",25%
same,survival of trophic factor-deprived motor neurons,[6],induced survival
same,motor neuron axon length and NMJ formation,[7]; 2 days old larvae exposed to Foretinib,longer and forms more NMJ
same,swimming deficits,"[7]; TDP-43 mutant larvae, data not shown",rescuing its swimming deficits
